Our source for the Stability values is ChEMBL document CHEMBL4828747, “Structure-Activity Relationships of Withanolides as Antiproliferative Agents for Multiple Myeloma: Comparison of Activity in 2D Models and a 3D Coculture Model” (J Nat Prod, 2021).

A short description of this data set: Stability in human RPMI 8226 cells medium measured upto 72 hrs by HPLC analysis. Format: ADME, cell-based. Conditions: rpmi-8226, 72 h.

As for `CC1=C(CO[Si](C)(C)C(C)(C)C)C(=O)O[C@@H]([C@@H](C)[C@H]2CC[C@H]3[C@@H]4C[C@H]5O[C@]56[C@@H](O[Si](C)(C)C)C=CC(=O)[C@]6(C)[C@H]4CC[C@]23C)C1`, the Stability entry is given as “Stable”.
